Test results from patent publication US10172848B2, “Gap junction-enhancing agents for treatment of necrotizing enterocolitis and inflammatory bowel disease” (University of Pittsburgh—of the Commonwealth System of …, priority 2010, dated 2019).
Square brackets hold non-standard residues; d marks the D form. Peptide text beside a SMILES is read from it. dHyp = O=C(O)[C@H]1C[C@H](O)CN1

Columns and labels:
[1] = qualitative statement, no test described; cited from earlier work
IEC-6 enterocytes = assay: enterocyte gap junction communication by confocal based dye transfer; format: cell-based; details: IEC-6 enterocytes treated with various concentrations of PMA for one hour; untreated cells = 100% dye transfer; FIG. 10A
Description: (§1) FIG. 10A-B. (A) IEC-6 enterocytes were treated with the concentrations of phorbol myristate acetate (“PMA”) indicated for one hour and then evaluated for the extent of enterocyte gap junction communication by confocal based dye transfer. The untreated cells represent the 100% dye transfer. *p<0.05 versus untreated cells. (B) IEC-6 cells were treated with the concentration of PMA indicated and assessed for their ability to migrate into a scraped wound over 20 hours. *p<0.05 vs. untreated cells. Representative of two separate experiments.
(§2) IEC-6 enterocytes were treated with various concentrations of phorbol myristate acetate (“PMA”) for one hour and then evaluated for the extent of enterocyte gap junction communication by confocal based dye transfer. […] Further, IEC-6 cells were treated with the concentration of PMA indicated and assessed for their ability to migrate into a scraped wound over 20 hours.

IEC-6 cells = assay: migration into a scraped wound; format: cell-based; details: migration into a scraped wound over 20 hours, increasing PMA concentration, FIG. 10B
Description: as §1, §2

Structure (SMILES) | half-life [1] | stability [1] | extent of gap junction communication (dye transfer) (IEC-6 enterocytes) | speed (rate) of enterocyte migration (IEC-6 cells)
CC(=O)N[C@H](Cc1ccc(O)cc1)C(=O)N1CCC[C@@H]1C(=O)N1C[C@@H](O)C[C@@H]1C(=O)NCC(=O)N[C@H](C)C(=O)NCC(N)=O [Rotigaptide, (2R, 4S)-1-[(2R)-1-[(2R)-2-acetamido-3-(4-hydroxyphenyl)propanoyl]pyrrolidine-2-carbonyl]-N-[2-[[(2R)-1-[(2-amino-2-oxoethyl)amino]-1-oxopropan-2-yl]amino]-2-oxoethyl]-4-hydroxypyrrolidine-2-carboxamide] (Ac-[dY][dP][dHyp]G[dA]G-NH2) | long half-life | stable | – | –
CCCCCCCCCCCCCC(=O)O[C@@H]1[C@@H](C)[C@@]2(O)[C@@H](C=C(CO)C[C@]3(O)C(=O)C(C)=C[C@@H]23)[C@@H]2C(C)(C)[C@]12OC(C)=O [PMA, phorbol myristate acetate] | – | – | as concentrations of PMA increased, so did the extent of gap junction communication | the speed (rate) of enterocyte migration also increased
NCC(=O)N1C[C@H](NC(=O)c2ccccc2)C[C@H]1C(=O)O [GAP-134, (2S,4R)-1-(2-aminoacetyl)-4-benzamido-pyrrolidine-2-carboxylic acid] | shorter half-life than ZP123 | – | – | –
